Experimental data as given in patent US7786095B2, “Amphiphilic macrocyclic derivatives and their analogues” (University College Dublin, priority 2000, dated 2010).
Values joined by “and” are separate entries in the source; they are usually repeats but may differ in a detail not shown here. Equal values may be shown once.

How the values were obtained:
Type in all cases: physicochemical
[1] = Transmission electron microscopy of cyclodextrin vesicles (uranyl acetate negative staining); conditions: prolonged sonication (9 hours), monodisperse solution
Protocol: (§1) The amphiphilic cyclodextrins are dispersed in water by sonication of a thin film (cast by slow rotary evaporation of a solution of the cyclodextrins in chloroform) in a sonication bath. HE-SC12 is sonicated for 2 hours at room temperature and HE-SC16 is sonicated for 2 hours at 50° C. Dynamic light scattering indicates the presence of vesicles with an average diameter of 170 nm. Vesicles of cyclodextrins of 50-300 nm diameter are also observed by transmission electron microscopy using uranyl acetate as a negative staining agent (FIG. 1). Upon prolonged sonication (9 hours) of a solution of HE-SC12, a monodisperse solution of spherical vesicles with an average diameter of 60 nm is obtained (FIG. 2). Thus, the particle size can be directed by sonication time, in order to obtain a size suitable for specific molecular inclusion or specific therapeutic use.

[2] = Dynamic light scattering of cyclodextrin vesicles dispersed in water by sonication; conditions: sonicated 2 hours (HE-SC12 room temperature, HE-SC16 50° C.)
Protocol: as §1

[3] = Carboxyfluorescein entrapment in vesicles: fluorescence increase on Triton X-100 solubilisation; conditions: 1000-fold dilution, 0.1% w/w Triton X-100, two independent preparations
Protocol: (§2) Vesicles of heptakis(6-dodecylthio-2-oligoethylenoxy)-β-cyclodextrin and […] were prepared by sonication in a buffered solution of carboxyfluorescein (CF).
(i) Small aliquots of the solutions of the cyclodextrin vesicles (5-20 mM) were diluted 1000-fold, resulting in immediate dilution of the non-entrapped CF with concomitant intense CF fluorescence, which was measured. The fluorescence of entrapped CF is negligible due to self-quenching. Next, the vesicles in the diluted solution were solubilised by the addition of 0.1% w/w of the detergent Triton X-100, leading to release and dilution of entrapped CF, with concomitant increase of CF fluorescence, which was measured. In this concentration range (ca. […]). The fluorescence intensity of CF correlates linearly with its concentration, and the incremental change of fluorescence upon addition of Triton X-100 is a direct measure of the percentage of entrapped volume of the vesicles relative to the total volume of the solution. The entrapped volume amounted to 7.7+/−1.9% and 11.4+/−2.7% for two independent preparations of HE-SC16; and to 5.0+/−2.4% and 7.2+/−5.3% for two independent preparations of HE-SC12.

[4] = Spontaneous release of carboxyfluorescein from gel-filtered vesicles over time; conditions: room temperature, after 3 days
Protocol: as §2
(ii) CF entrapped in the vesicles was separated from free (non-entrapped) CF by gel filtration using Sephadex G25. […] The peak of entrapped CF coincided with the elution of vesicles (FIG. 4). This confirms the existence of an aqueous inner compartment within the vesicles. Furthermore, as anticipated, the amount of entrapped CF in cyclodextrin vesicles correlated with the cyclodextrin concentration.
(iii) The spontaneous release of CF from vesicles of HE-SC16 (separated from free CF by gel filtration) was measured over time. At room temperature, the leakage of CF was limited, and the vesicles retained more than 75% of CF after 3 days (FIG. 5).

[5] = Differential scanning calorimetry of a 10% (w/w) dispersion in water
Protocol: Heptakis(6-hexadecylthio-2-oligoethylenoxy)-β-cyclodextrin was analysed using differential scanning calorimetry. […] The transition occurred around 48-49° C. and the enthalpy of transition amounted to 59 kJ/mol cyclodextrin. This typical Lβ-L[…] transition was confirmed in a measurement of the fluorescence polarisation of diphenylhexatriene in the presence of a vesicle solution by a standard method (R. R. C. New, Liposomes: a practical approach, Oxford University Press, 1990). Thus, vesicles of the amphiphilic cyclodextrins undergo thermotropic phase transitions which depend on molecular structure, and which can direct important parameters such as vesicle stability and bilayer permeability.

| average diameter of spherical vesicles after prolonged sonication [1] [nm] | average diameter of vesicles (dynamic light scattering) [2] [nm] | entrapped volume of the vesicles relative to the total volume of the solution [3] | CF retained by vesicles [4] | endothermic phase transition temperature (DSC heating scan) [5] | enthalpy of transition [5] [kJ/mol cyclodextrin] | Substance |
| --- | --- | --- | --- | --- | --- | --- |
| 60 | 170 | 5.0+/−2.4% and 7.2+/−5.3% | – | – | – | heptakis(6-dodecylthio-2-oligoethylenoxy)-β-cyclodextrin [HE-SC12] |
| – | 170 | 7.7+/−1.9% and 11.4+/−2.7% | more than 75% | 48-49 °C | 59 | heptakis(6-hexadecylthio-2-oligoethylenoxy)-β-cyclodextrin [HE-SC16] |
